These results are taken from US10758534B2 (Vertex Pharmaceuticals Incorporated, priority 2014, dated 2020).

Some results are limits rather than exact numbers.

The target in the first test is T1, F508del (Homo sapiens, UniProt P13569, DEL508-508).
T1 construct: expressed in transfected cells
T1 sequence (P13569 with tags, fused parts or gaps DEL508-508): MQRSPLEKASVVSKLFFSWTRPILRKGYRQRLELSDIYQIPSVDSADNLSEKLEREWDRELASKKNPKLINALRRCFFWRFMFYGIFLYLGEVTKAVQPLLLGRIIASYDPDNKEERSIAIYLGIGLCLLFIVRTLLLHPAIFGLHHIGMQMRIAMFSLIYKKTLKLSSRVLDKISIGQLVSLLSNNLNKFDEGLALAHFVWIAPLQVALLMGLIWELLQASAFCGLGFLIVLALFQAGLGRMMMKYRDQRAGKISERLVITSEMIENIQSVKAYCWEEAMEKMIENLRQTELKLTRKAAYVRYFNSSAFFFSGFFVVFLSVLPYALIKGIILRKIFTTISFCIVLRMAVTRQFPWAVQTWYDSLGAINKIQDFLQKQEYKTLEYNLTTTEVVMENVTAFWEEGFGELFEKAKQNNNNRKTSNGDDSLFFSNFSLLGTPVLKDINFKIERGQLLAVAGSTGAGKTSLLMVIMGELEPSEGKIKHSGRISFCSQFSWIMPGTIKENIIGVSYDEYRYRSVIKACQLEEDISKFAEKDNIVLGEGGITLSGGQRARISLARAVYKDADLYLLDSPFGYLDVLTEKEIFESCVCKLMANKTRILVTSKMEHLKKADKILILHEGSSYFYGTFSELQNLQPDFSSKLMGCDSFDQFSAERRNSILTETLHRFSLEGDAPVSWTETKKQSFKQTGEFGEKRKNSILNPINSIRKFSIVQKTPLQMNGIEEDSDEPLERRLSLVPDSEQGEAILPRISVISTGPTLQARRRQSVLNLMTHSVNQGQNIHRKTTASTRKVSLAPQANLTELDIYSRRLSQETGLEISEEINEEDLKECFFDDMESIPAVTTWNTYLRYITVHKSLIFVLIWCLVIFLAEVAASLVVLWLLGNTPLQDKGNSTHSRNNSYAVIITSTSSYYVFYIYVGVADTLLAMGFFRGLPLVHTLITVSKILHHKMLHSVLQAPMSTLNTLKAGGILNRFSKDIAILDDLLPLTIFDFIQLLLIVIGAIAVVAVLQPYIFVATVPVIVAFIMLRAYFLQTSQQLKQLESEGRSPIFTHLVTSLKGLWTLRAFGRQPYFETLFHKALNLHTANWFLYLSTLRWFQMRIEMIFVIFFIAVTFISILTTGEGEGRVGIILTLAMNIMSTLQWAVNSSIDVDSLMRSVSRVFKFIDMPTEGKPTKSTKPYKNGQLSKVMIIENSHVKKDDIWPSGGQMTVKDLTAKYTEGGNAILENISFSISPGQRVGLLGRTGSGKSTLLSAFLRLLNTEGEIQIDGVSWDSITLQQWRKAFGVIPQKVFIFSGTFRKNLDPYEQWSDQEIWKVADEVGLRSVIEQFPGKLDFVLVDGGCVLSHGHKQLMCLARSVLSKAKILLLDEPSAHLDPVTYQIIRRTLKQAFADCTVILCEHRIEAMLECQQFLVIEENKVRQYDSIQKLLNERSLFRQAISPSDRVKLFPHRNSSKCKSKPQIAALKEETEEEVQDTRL
Description: Protocol 2: FRET membrane potential optical assay (VIPR), identification of correction compounds. The format is cell-based. Conditions: F508del CFTR modulator activity; compounds of Table 1; read-out: EC30. Summed up:
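FRET read-out (CC2-DMPE donor, DiSBAC2(3) voltage-sensitive acceptor) of membrane depolarization on VIPR II. Corrector candidates incubated 16 hrs at 37° C. with NIH3T3 cells expressing F508del; temperature correction at 27° C. as positive control; stimulation by 10 μM forskolin, 20 μM genistein, chloride-free gluconate bath.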
By EC30 is commonly meant the concentration at which the effect reaches the 30% level. In the case of `C[C@@H]1CN(c2nc(-c3ccc(C(F)(F)F)cc3)ccc2C(=O)NS(=O)(=O)c2cccnc2N)C(C)(C)C1` [Compound 2048, N-[(2-amino-3-pyridyl)sulfonyl]-6-[4-(trifluoromethyl)phenyl]-2-[(4S)-2,2,4-trimethylpyrrolidin-1-yl]pyridine-3-carboxamide], the EC30 was less than 3000 nM.

In the case of `Cc1ccc(-c2ccc(C(=O)NS(=O)(=O)c3ccc[nH]c3=O)c(N3C[C@@H](C)CC3(C)C)n2)c(F)c1` [Compound 2000, 6-(2-fluoro-4-methyl-phenyl)-N-[(2-oxo-1H-pyridin-3-yl)sulfonyl]-2-[(4S)-2,2,4-trimethylpyrrolidin-1-yl]pyridine-3-carboxamide], the concentration for an effect of 30% (EC30) is less than 3000 nM.

Turning to `CCOCCNc1ncc(-c2ccc(C(=O)NS(=O)(=O)c3cccc(N)n3)c(N3C[C@@H](C)CC3(C)C)n2)cc1C` [Compound 2683], the EC30 was less than 3000 nM.

Staying with this test, now noted: Table 3; compounds of Table 1 as modulators of CFTR activity; protocol not stated.
For `Cc1cc(C)c(Oc2nc(-c3ccc(C)c(C)c3)ccc2C(=O)NS(=O)(=O)c2cccc(N)n2)c(C)c1` [Compound 399, N-[(6-amino-2-pyridyl)sulfonyl]-6-(3,4-dimethylphenyl)-2-(2,4,6-trimethylphenoxy)pyridine-3-carboxamide], the EC30 entry was “+++ (“+++” means <3 uM)”.

For the molecule `Cc1ccccc1Oc1nc(C(C)(C)C)ccc1C(=O)NS(=O)(=O)c1cccc(N)c1` [Compound 296, N-(3-aminophenyl)sulfonyl-6-tert-butyl-2-(2-methylphenoxy)pyridine-3-carboxamide], the EC30 result is recorded as “+++ (“+++” means <3 uM)”.

Turning to `CC(C)Oc1ccc(-c2ccc(C(=O)NS(=O)(=O)c3cccc(N)n3)c(N3CCC(Cc4ccccc4)C3)n2)cn1` (stereo not drawn) [Compound 647, N-[(6-amino-2-pyridyl)sulfonyl]-2-(3-benzylpyrrolidin-1-yl)-6-(6-isopropoxy-3-pyridyl)pyridine-3-carboxamide], the EC30 entry is on record as “+++ (“+++” means <3 uM)”.

As for `Cc1cc(C)c(Oc2nc(C(C)(C)C)ccc2C(=O)NS(=O)(=O)c2ccc(N)cc2)c(C)c1` [Compound 11, N-(4-aminophenyl)sulfonyl-6-tert-butyl-2-(2,4,6-trimethylphenoxy)pyridine-3-carboxamide], the EC30 result is “+++ (“+++” means <3 uM)”.

Regarding `CC(C)COc1cccc(-c2ccc(C(=O)NS(=O)(=O)c3cccc(N)n3)c(N3CC(C)CC3(C)C)n2)c1` (stereo not drawn) [Compound 695, N-[(6-amino-2-pyridyl)sulfonyl]-6-(3-isobutoxyphenyl)-2-(2,2,4-trimethylpyrrolidin-1-yl)pyridine-3-carboxamide], the concentration for an effect of 30% (EC30) result was “+++ (“+++” means <3 uM)”.

In the case of `Cc1cccc(C)c1Cn1nc(-c2cccc(Cl)c2)cc1C(=O)NS(=O)(=O)c1ccccc1` [Compound 83, N-(benzenesulfonyl)-5-(3-chlorophenyl)-2-[(2,6-dimethylphenyl)methyl]pyrazole-3-carboxamide], the EC30 result is listed as “+++ (“+++” means <3 uM)”.

Turning to `CC1CN(c2nc(-c3cccc(OC(C)C)n3)ccc2C(=O)NS(=O)(=O)c2cccc(N)n2)C(C)(C)C1` (stereo not drawn) [Compound 708, N-[(6-amino-2-pyridyl)sulfonyl]-6-(6-isopropoxy-2-pyridyl)-2-(2,2,4-trimethylpyrrolidin-1-yl)pyridine-3-carboxamide], the EC30 result is “+++ (“+++” means <3 uM)”.

`Cc1cc(C)c(Cn2nc(C(C)(C)C)cc2C(=O)NS(=O)(=O)c2cccc(CO)c2)c(C)c1` [Compound 39, 5-tert-butyl-N-[3-(hydroxymethyl)phenyl]sulfonyl-2-[(2,4,6-trimethylphenyl)methyl]pyrazole-3-carboxamide]: the EC30 result was “++ (“++” means between 3 uM and 10 uM)”.

`CC(C)COc1cc(F)cc(-c2ccc(C(=O)NS(=O)(=O)c3ccn[nH]3)c(N3CCCC(c4ccccn4)C3)n2)c1` (stereo not drawn) [Compound 677, 6-(3-fluoro-5-isobutoxy-phenyl)-N-(1H-pyrazol-5-ylsulfonyl)-2-[3-(2-pyridyl)-1-piperidyl]pyridine-3-carboxamide]: the EC30 entry was “++ (“++” means between 3 uM and 10 uM)”.
